Results reported in patent US20060258589A1, “Methods for enhancing radiation therapy” (IGF Oncology, LLC, priority 2004, published 2006).

What was measured:
[1] = test system: LnCap, MiaPaCa, H226, and A549 tumors; assay: In vivo assays: growth of tumor volume after irradiation of subcutaneous tumors in nude mice; settings: male nude mice; treated 30 minutes before 15 Gy X-rays; followed for 3 weeks
Experimental: LnCap, MiaPaCa, H226, and A549 cells are grown in culture. Cells are harvested using 0.25% trypsin, washed, suspended in Dulbecco's PBS, and counted. 1×10^6 cells are injected subcutaneously into the hind thigh of male nude mice. Tumors are grown to 250 mm^3 in ˜21 days. Tumors are measured with a caliper, and the tumor size is calculated by the formula a^2b/2, where a and b are the shorter and longer diameters of the tumor, respectively. When the tumors reach 250 mm^3, the mice are treated with insulin (5 or 40 μg/kg), IGF-1 (5 or 100 μg/kg) or insulin+glucose (5 g glucose/kg), or growth hormone (50 or 500 μg/kg), or saline control 30 minutes before radiation treatment. The mice are anesthetized immediately before radiation treatment, and then the tumor-bearing leg is irradiated with X-rays at 1.4 Gy/minute, receiving a dose of 15 Gy. The growth of tumor volume in the mice after irradiation is followed for 3 weeks.

[2] = test system: MiaPaCa, LnCap, H226 and A549 cells; assay: In vitro assays: surviving fraction (colony formation) of cancer cells after X-ray irradiation; type: cell-based, human; settings: hormone added before 200 rads X-rays; for sensitization to radiation: exponential phase cells; for cell killing by radiation: plateau-phase cells, at least some concentrations and times
Experimental: MiaPaCa (a human pancreatic cancer cell line), LnCap (a human prostate cancer cell line), H226 and A549 (two human lung cancer cell lines) are grown in monolayer cultures in McCoy's 5A medium containing 10% fetal bovine serum and buffered with 2.0 g/L sodium bicarbonate and 0.02 M Hepes, pH 7.4. The cells are at seeded at 6×10^4 cells per T30 flask. On day 3 the medium is changed. The cells are irradiated at either 4 days (exponential cells) or 7 days (plateau-phase cells). Twenty minutes before, 2 hours before, or immediately before irradiation, insulin (0.01, 0.1, or 1 μg/ml) or IGF-1 (3, 20, or 150 ng/ml) is added to the medium. Control cells have no added hormone. The cells are then irradiated with 200 rads X-rays. After irradiation, the cells are allowed to recover in the used medium for 60 minutes.
The cells are then typsinized and plated in fresh medium. The surviving fraction of a specific number of plated cells is determined by staining colonies with methylene blue after 7-10 days of growth.
Exponential-phase and plateau-phase cells are then treated with insulin and IGF-1 separately and together at their experimentally determined optimal concentrations immediately before, 15 minutes before, and 2 hours before irradiation with a range of radiation doses. Again, the cells are trypsinized and plated, and the percent surviving is determined.
Exponential- and plateau-phase cells are then treated with insulin at the optimal concentration in combination with 30 mM glucose.

breast cancer cells = settings: tissue culture; methotrexate killing; cited from earlier work
[3] = another study; cited from earlier work
cancer cells = settings: Ciftci 2003; cited from earlier work
[4] = test system: soluble IGF-1 binding proteins; settings: compared to native IGF-1; Francis 1992, Tomas 1993; cited from earlier work

In the case of growth hormone, the “effectiveness of radiation therapy (growth of tumor volume)” value (“effectiveness of radiation therapy” below) [1] is reported as “enhance the effectiveness of radiation therapy”.

In the case of insulin, the sensitization to radiation [2] is given as “sensitized to radiation”, the “cell killing by radiation” value [2] is given as “increase cell killing by radiation” and the “enhancement of the killing of breast cancer cells” value (breast cancer cells) is given as “up to 10,000 fold”. The “enhancement of uptake of methotrexate” value [3] was 2 factor and the “effectiveness of radiation therapy” value [1] was “enhance the effectiveness of radiation therapy”.

For insulin-like growth factor-1 [IGF-1], the sensitization to radiation [2] is given as “sensitized to radiation”, the “cell killing by radiation” value [2] is given as “increase cell killing by radiation” and the “proportion of cells in the G2 and M phases of the cell cycle” value (cancer cells) is given as “moves a greater proportion of the cells into the G2 and M phases”. The “effectiveness of radiation therapy” value [1] was “enhance the effectiveness of radiation therapy”.

B1: LONG-R3-IGF-1: variant IGF-1 with reduced binding affinity for the soluble IGF-1 binding proteins (SEQ ID NO:1) (protein)
chain: MFPAMPLSSLFVNGPRTLCGAELVDALQFVCGDRGFYFNKPTGYSSSRRAPQTGIVDECCFRSCDLRRLEMYCAPLKPAKSA
modifications: LONG-R3-IGF-1 synthetic variant of IGF-1
For B1, the “binding affinity for the soluble IGF-1 binding proteins” value [4] is listed as “reduced binding affinity”.
